Each compound was assayed against SREBP-2 (Homo sapiens (Human), UniProt Q12772) (assay: In vitro assay SREBP-2: PathHunter U2OS SREBP-2 Nuclear Translocation Cell Line, U18666A-stimulated). Conditions: PathHunter U2OS SREBP-2 nuclear translocation cells, U18666A 10 μM, overnight (16 hours).
Type: cell-based
With `C[C@H](CCC(=O)N1CCC(C(NS(C)(=O)=O)C(F)(F)F)CC1)[C@H]1CC[C@H]2[C@@H]3CC=C4C[C@@H](O)CC[C@]4(C)[C@H]3CC[C@]12C` (stereo partly drawn) [Example 476, N-(2,2,2-trifluoro-1-(1-((R)-4-((3S,8S,9S,10R,13R,14S,17R)-3-hydroxy-10,13-dimethyl-2,3,4,7,8,9,10,11,12,13,14,15,16,17-tetradecahydro-1H-cyclopenta[a]phenanthren-17-yl)pentanoyl)piperidin-4-yl)ethyl)methanesulfonamide] the IC50 was < 250 nM.
In the case of `C[C@H](CCC(=O)N1CCC(O)(CO)CC1)[C@H]1CC[C@H]2[C@@H]3CC=C4C[C@@H](O)CC[C@]4(C)[C@H]3CC[C@]12C` [Example 150, (R)-4-((3S,8S,9S,10R,13R,14S,17R)-3-hydroxy-10,13-dimethyl-2,3,4,7,8,9,10,11,12,13,14,15,16,17-tetradecahydro-1H-cyclopenta[a]phenanthren-17-yl)-1-(4-hydroxy-4-(hydroxymethyl)piperidin-1-yl)pentan-1-one], the IC50 is reported as < 250 nM.
For `C[C@H](CCC(=O)N1CCC(O)(C2CCC2)CC1)[C@H]1CC[C@H]2[C@@H]3CC=C4C[C@@H](O)CC[C@]4(C)[C@H]3CC[C@]12C` [Example 194, (R)-1-(4-cyclobutyl-4-hydroxypiperidin-1-yl)-4-((3S,8S,9S,10R,13R,14S,17R)-3-hydroxy-10,13-dimethyl-2,3,4,7,8,9,10,11,12,13,14,15,16,17-tetradecahydro-1H-cyclopenta[a]phenanthren-17-yl)pentan-1-one], the IC50 was < 250 nM.
`C[C@H](CCC(=O)N1CCC([C@H](O)C(F)(F)F)CC1)[C@H]1CC[C@H]2[C@@H]3CC=C4C[C@@H](O)CC[C@]4(C)[C@H]3CC[C@]12C` [Example 468, (4R)-4-[(1R,3aS,3bS,7S,9aR,9bS,11aR)-7-hydroxy-9a,11a-dimethyl-1H,2H,3H,3aH,3bH,4H,6H,7H,8H,9H,9aH,9bH,10H,11H,11aH-cyclopenta[a]phenanthren-1-yl]-1-{4-[(1 S)-2,2,2-trifluoro-1-hydroxyethyl]piperidin-1-yl}pentan-1-one] was tested, and the IC50 was < 250 nM.
With `C[C@H](CCC(=O)N1CCC(O)(CC(F)(F)F)CC1)[C@H]1CC[C@H]2[C@@H]3CC=C4C[C@@H](O)CC[C@]4(C)[C@H]3CC[C@]12C` [Example 152, (R)-4-((3S,8S,9S,10R,13R,14S,17R)-3-hydroxy-10,13-dimethyl-2,3,4,7,8,9,10,11,12,13,14,15,16,17-tetradecahydro-1H-cyclopenta[a]phenanthren-17-yl)-1-(4-hydroxy-4-(2,2,2-trifluoroethyl)piperidin-1-yl) pentan-1-one] the IC50 was < 250 nM.
In the case of `C[C@H](CCC(=O)N1CC[C@H](NS(C)(=O)=O)C1)[C@H]1CC[C@H]2[C@@H]3CC=C4C[C@@H](O)CC[C@]4(C)[C@H]3CC[C@]12C` [Example 535, N—((S)-1-((R)-4-((3S,8S,9S,10R,13R,14S,17R)-3-hydroxy-10,13-dimethyl-2,3,4,7,8,9,10,11,12,13,14,15,16,17-tetradecahydro-1H-cyclopenta[a]phenanthren-17-yl)pentanoyl)pyrrolidin-3-yl)methanesulfonamide], the IC50 is reported as 250 to 1000 nM.
`Cc1ccc(OC[C@@H](C)[C@H]2CC[C@H]3[C@@H]4CC=C5C[C@@H](O)CC[C@]5(C)[C@H]4CC[C@]23C)nc1` [Example 263, (3S,8S,9S,10R,13S,14S,17R)-10,13-dimethyl-17-((S)-1-((5-methylpyridin-2-yl)oxy)propan-2-yl)-2,3,4,7,8,9,10,11,12,13,14,15,16,17-tetradecahydro-1H-cyclopenta[a]phenanthren-3-ol] gave an IC50 of 250 to 1000 nM.
For `C[C@H](CCC(=O)N1CCC(CN2CCOC(C)(C)C2=O)CC1)[C@H]1CC[C@H]2[C@@H]3CC=C4C[C@@H](O)CC[C@]4(C)[C@H]3CC[C@]12C` [Example 522, 4-({1-[(4R)-4-[(1R,3aS,3bS,7S,9aR,9bS,11aR)-7-hydroxy-9a,11a-dimethyl-1H,2H,3H,3aH,3bH,4H,6H,7H,8H,9H,9aH,9bH,10H,11H,11aH-cyclopenta[a]phenanthren-1-yl]pentanoyl]piperidin-4-yl}methyl)-2,2-dimethylmorpholin-3-one], the IC50 was < 250 nM.
`COC(=O)N1CCN(C(=O)O[C@@H](C)[C@H]2CC[C@H]3[C@@H]4CC=C5C[C@@H](O)CC[C@]5(C)[C@H]4CC[C@]23C)CC1` [Example 466, 1-(1S)-1-[(1S,3aS,3bS,7S,9aR,9bS,11aS)-7-hydroxy-9a,11a-dimethyl-1H,2H,3H,3aH,3bH,4H,6H,7H,8H,9H,9aH,9bH,10H,11H,11aH-cyclopenta[a]phenanthren-1-yl]ethyl 4-methyl piperazine-1,4-dicarboxylate] was tested, and the IC50 was 250 to 1000 nM.
With `CC(=O)N1CCC(C(=O)N(C)CC[C@@H](C)[C@H]2CC[C@H]3[C@@H]4CC=C5C[C@@H](O)CC[C@]5(C)[C@H]4CC[C@]23C)CC1` [Example 294, 1-acetyl-N—((R)-3-((3S,8S,9S,10R,13R,14S,17R)-3-hydroxy-10,13-dimethyl-2,3,4,7,8,9,10,11,12,13,14,15,16,17-tetradecahydro-1H-cyclopenta[a]phenanthren-17-yl)butyl)-N-methylpiperidine-4-carboxamide] the IC50 was 250 to 1000 nM.
For `C[C@H](CCC(=O)N1CCC(C)(CN2CCOC(C)(C)C2=O)CC1)[C@H]1CC[C@H]2[C@@H]3CC=C4C[C@@H](O)CC[C@]4(C)[C@H]3CC[C@]12C` [Example 523, 4-((1-((R)-4-((3S,8S,9S,10R,13R,14S,17R)-3-hydroxy-10,13-dimethyl-2,3,4,7,8,9,10,11,12,13,14,15,16,17-tetradecahydro-1H-cyclopenta[a]phenanthren-17-yl)pentanoyl)-4-methylpiperidin-4-yl)methyl)-2,2-dimethylmorpholin-3-one], the IC50 was < 250 nM.
`CC#CC1(O)CCN(C(=O)CC[C@@H](C)[C@H]2CC[C@H]3[C@@H]4CC=C5C[C@@H](O)CC[C@]5(C)[C@H]4CC[C@]23C)CC1` [Example 90, (R)-4-((3S,8S,9S,10R,13R,14S,17R)-3-hydroxy-10,13-dimethyl-2,3,4,7,8,9,10,11,12,13,14,15,16,17-tetradecahydro-1H-cyclopenta[a]phenanthren-17-yl)-1-(4-hydroxy-4-(prop-1-yn-1-yl)piperidin-1-yl)pentan-1-one] was tested, and the IC50 was < 250 nM.
For `CCC1(O)CCN(C(=O)C[C@@H](C)[C@H]2CC[C@H]3[C@@H]4CC=C5C[C@@H](O)CC[C@]5(C)[C@H]4CC[C@]23C)CC1` [Example 592, (R)-1-(4-ethyl-4-hydroxypiperidin-1-yl)-3-((3S,8S,9S,10R,13R,14S,17R)-3-hydroxy-10,13-dimethyl-2,3,4,7,8,9,10,11,12,13,14,15,16,17-tetradecahydro-1H-cyclopenta[a]phenanthren-17-yl)butan-1-one], the IC50 was < 250 nM.
With `C[C@H](Oc1cncc(CO)c1)[C@H]1CC[C@H]2[C@@H]3CC=C4C[C@@H](O)CC[C@]4(C)[C@H]3CC[C@]12C` [Example 269, (3S,8S,9S,10R,13S,14S,17S)-17-((S)-1-((5-(hydroxymethyl)pyridin-3-yl)oxy)ethyl)-10,13-dim ethyl-2,3,4,7,8,9,10,11,12,13,14,15,16,17-tetradecahydro-1H-cyclopenta[a]phenanthren-3-ol] the IC50 was 250 to 1000 nM.

— patent US20230340011A1 (Asteroid Therapeutics, priority 2022, published 2023)
